Measurements from US20220202912A1, “Polypeptides in Preparation of Drugs for Treatment or Prevention of Rheumatoid Arthritis” (priority 2011, published 2022).

Key:
Assay type in all cases: in vivo, BALB/c transgenic TNF-luc mice
[1] = system: TNF-α; test: immunohistochemistry of TNF-α in ankle joints, AIA transgenic TNF-luc mice; conditions: Adalimumab 8 mg/kg, mPEG-SC20k-HM-3 20 mg/kg
Procedure: (§1) Changes of expression of TNF-α and IL-6 are analyzed by HE staining and immunohistochemistry in the ankle joint, spleen and thymus of the mice. Observation and photographing are performed under the FOVs of ×200 and ×400 times respectively, 5 FOVs are taken randomly for each picture, and data statistics is performed.

[2] = system: IL-6; test: immunohistochemistry of IL-6 in spleen and thymus, AIA transgenic TNF-luc mice; conditions: Adalimumab 8 mg/kg, mPEG-SC20k-HM-3 20 mg/kg
Procedure: as §1

[3] = system: CIA transgenic TNF-luc mice; test: collagen type II-induced arthritis in transgenic TNF-luc mice (swelling, scores, weight); set-up: key to joint index score / arthritis index score: 0–4 per paw, four paws summed, max 16; conditions: Adalimumab 8 mg/kg, mPEG-SC20k-HM-3 20 mg/kg; for right ankle swelling changes: CIA TNF-luc mice; for clinical score (Table 32, kg) / arthritis index score / clinical score: CIA chronic model
Procedure: 8 animals are randomly divided into 4 groups (n=2), a normal group, a model group, a positive drug group and a test group. On day 0, for the primary immunization, mice are hypodermically injected with 50 μL collagen emulsifier (containing CII 100 μg/ mouse) at the tail root of mice for sensitization. On day 0, initial ankle widths, initial foot palm widths and initial toe thicknesses of left and right feet of mice in each group are measured separately.
After day 21, the same dosage of emulsifier is used for second immunization at the tail root. After the symptoms such as redness and swelling of joints appear on the four toes of mice, continuous administration is performed for 15 days. The normal group and the model group are separately hypodermically injected with 0.9% normal saline (0.2 mL/20 g of body weight), once every 2 days, 7 times in total. The positive drug Adalimumab group is hypodermically injected with Adalimumab (8 mg/kg of body weight), once every 15 days, once in total. The test treatment group is hypodermically injected with mPEG-SC20k-HM-3 (20 mg/kg of body weight), once every 2 days, 7 times in total.
Every 2 days, the thickness of the ankle, the width of the foot palm and the thickness of the toes of each group of mice are measured with a vernier caliper.
Swelling degree of left ankle (cm)=swelling thickness of left ankle on day n of the experiment−measured initial thickness of left ankle.
Swelling degree of right ankle (cm)=swelling thickness of right ankle on day n of the experiment−measured initial thickness of right ankle.
The joints of the mouse paw are observed with naked eyes, and the joints are scored every 2 days from day 30. Scoring is performed in terms of level 0 to level 4, 5 levels in total. 0=no erythema or swelling; 1=slight erythema or swelling, with erythema or swelling on one of the front/hind toe joints; 2=erythema or swelling on more than one toe; 3=swelling of paw beneath the ankle or wrist joint; 4=swelling of all paws including the ankle joint. Four paws of the mice are scored separately, and the highest score is 16 points.
After the secondary inflammation appears, systemic scoring is performed every 2 days, and the scoring standards are as follows:
Hind foot: no swelling=0 point, swelling of one hind foot=1 point, swelling of two hind feet=2 points.
Front foot: no swelling=0, swelling of one front foot=1 point, swelling of two front feet=2 points.
Ears: no redness symptoms and nodules=0 point, redness symptoms or nodules of one ear=1 point, red symptoms and nodules of two ears=2 points.
Nose: no swelling=0 point, obvious swelling=1 point.
Tail: no nodule=0 point, nodules=1 point; the highest score is 8 points.

With Adalimumab [reference compound] the “immunohistochemical score of TNF-α in ankle joint cavity” value [1] was 0.246±0.110, the “immunohistochemical score of IL-6 in spleen” value [2] was 0.013±0.010 and the “immunohistochemical score of IL-6 in thymus” value [2] was 0.039±0.041. The left ankle swelling ([3]; 0 d) was 0.000 ± 0.000 cm, the “right ankle swelling changes” value ([3]; 0 d, mean ± SD) was 0.000 ± 0.000 cm and the “clinical score (Table 32, kg)” value ([3]; 0 d, mean ± SD) was 0.000 ± 0.000. For the same substance, the left ankle swelling ([3]; 12 d) was 0.006 ± 0.050 cm, the “right ankle swelling changes” value ([3]; 12 d, mean ± SD) was 0.010 ± 0.014 cm and the “clinical score (Table 32, kg)” value ([3]; 12 d, mean ± SD) was 1.050 ± 0.778. For the same substance, the left ankle swelling ([3]; 15 d) was 0.011 ± 0.072 cm, the “right ankle swelling changes” value ([3]; 15 d, mean ± SD) was 0.000 ± 0.028 cm and the “clinical score (Table 32, kg)” value ([3]; 15 d, mean ± SD) was 0.940 ± 1.047. The left ankle swelling ([3]; 18 d) was 0.021 ± 0.058 cm, the “right ankle swelling changes” value ([3]; 18 d, mean ± SD) was 0.012 ± 0.011 cm and the “clinical score (Table 32, kg)” value ([3]; 18 d, mean ± SD) was 0.455 ± 0.247. For the same substance, the left ankle swelling ([3]; 21 d) was 0.001 ± 0.041 cm, the “right ankle swelling changes” value ([3]; 21 d, mean ± SD) was 0.007 ± 0.010 cm and the “clinical score (Table 32, kg)” value ([3]; 21 d, mean ± SD) was 0.230 ± 0.523. The left ankle swelling ([3]; 24 d) was 0.016 ± 0.048 cm, the “right ankle swelling changes” value ([3]; 24 d, mean ± SD) was 0.009 ± 0.007 cm and the “clinical score (Table 32, kg)” value ([3]; 24 d, mean ± SD) was 0.550 ± 0.212. The left ankle swelling ([3]; 27 d) was 0.007 ± 0.049 cm, the “right ankle swelling changes” value ([3]; 27 d, mean ± SD) was 0.012 ± 0.017 cm and the “clinical score (Table 32, kg)” value ([3]; 27 d, mean) was 1.295. For the same substance, the left ankle swelling ([3]; 30 d) was 0.012 cm, the “right ankle swelling changes” value ([3]; 30 d, mean ± SD) was 0.008 ± 0.008 cm and the “clinical score (Table 32, kg)” value ([3]; 30 d, mean) was 0.975. It also gave an arthritis index score ([3]; 30 d, mean ± SD) of 5.00 ± 2.83, a clinical score ([3]; 30 d, mean ± SD) of 5.00 ± 1.41 and a left ankle swelling ([3]; 33 d) of 0.011 ± 0.041 cm. For the same substance, the “right ankle swelling changes” value ([3]; 33 d, mean ± SD) was 0.011 ± 0.016 cm, the arthritis index score ([3]; 33 d, mean ± SD) was 8.00 ± 0.00 and the clinical score ([3]; 33 d, mean ± SD) was 5.00 ± 0.00. The “clinical score (Table 32, kg)” value ([3]; 33 d, mean ± SD) was 1.295 ± 0.177, the left ankle swelling ([3]; 36 d) was 0.012 ± 0.042 cm and the “right ankle swelling changes” value ([3]; 36 d, mean ± SD) was 0.017 ± 0.007 cm. The arthritis index score ([3]; 36 d, mean ± SD) was 8.50 ± 0.71, the clinical score ([3]; 36 d, mean ± SD) was 5.00 ± 0.00 and the “clinical score (Table 32, kg)” value ([3]; 36 d, mean ± SD) was 2.200 ± 0.707. The left ankle swelling ([3]; 39 d) was 0.002 ± 0.031 cm, the “right ankle swelling changes” value ([3]; 39 d, mean ± SD) was 0.007 ± 0.010 cm and the arthritis index score ([3]; 39 d, mean ± SD) was 6.50 ± 0.71. For the same substance, the clinical score ([3]; 39 d, mean ± SD) was 5.00 ± 0.00, the “clinical score (Table 32, kg)” value ([3]; 39 d, mean ± SD) was 2.187 ± 0.443 and the left ankle swelling ([3]; 42 d) was 0.003 ± 0.052 cm. The “right ankle swelling changes” value ([3]; 42 d, mean ± SD) was 0.012 ± 0.017 cm, the arthritis index score ([3]; 42 d, mean ± SD) was 5.50 ± 0.71 and the clinical score ([3]; 42 d, mean ± SD) was 5.00 ± 0.00. The “clinical score (Table 32, kg)” value ([3]; 42 d, mean ± SD) was 2.655 ± 1.082, the left ankle swelling ([3]; 45 d) was 0.006 ± 0.051 cm and the “right ankle swelling changes” value ([3]; 45 d, mean ± SD) was 0.005 ± 0.021 cm. The arthritis index score ([3]; 45 d, mean ± SD) was 5.00 ± 0.00, the clinical score ([3]; 45 d, mean ± SD) was 4.00 ± 0.00 and the “clinical score (Table 32, kg)” value ([3]; 45 d, mean ± SD) was 3.085 ± 1.478. The left ankle swelling ([3]; 48 d) was 0.007 ± 0.047 cm, the “right ankle swelling changes” value ([3]; 48 d, mean ± SD) was 0.006 ± 0.006 cm and the “clinical score (Table 32, kg)” value ([3]; 48 d, mean) was 3.415. For the same substance, the arthritis index score ([3]; 48 d, mean ± SD) was 5.00 ± 1.41, the clinical score ([3]; 48 d, mean ± SD) was 5.00 ± 0.00 and the left ankle swelling ([3]; 51 d) was 0.001 cm. The “right ankle swelling changes” value ([3]; 51 d, mean ± SD) was 0.004 ± 0.006 cm, the “clinical score (Table 32, kg)” value ([3]; 51 d, mean) was 3.835 and the arthritis index score ([3]; 51 d, mean ± SD) was 4.50 ± 0.71. The clinical score ([3]; 51 d, mean ± SD) was 4.50 ± 0.71.
